{"source": "patent US20260306640A1", "about": "“TECHNOLOGIES TARGETING CELL STATES” (Auron Therapeutics, Inc., priority 2023, published 2026)", "key": {"[1]": {"tested_on": "histone acetylation (e.g., AcH3K9)", "assay": "Histone H3K9 acetylation (AcH3K9), Western Blot, NCI-H1048 cells", "type": "cell-based, human", "conditions": "FIG. 1", "description": "In some embodiments, an assessment is performed using cells. In some embodiments, cells were treated with various compounds before assessing KAT2A and/or KAT2B levels, histone (e.g., H3K9) acetylation levels, cell states, growth, etc.\nWestern Blot: In some assessments, MOLM13, NCI-H1048, LASCPC-01 and NEPC organoid cells were treated with compounds at certain concentrations for certain periods of time, and cell pellets were lysed by adding 1-part 4×laemmli Sample buffer (e.g., Bio-Rad Catalog #1610747) along with Mercaptoethanol (e.g., Bio-Rad Catalog #1610710) according to manufacturer's instructions, and 1-part RIPA buffer with 2×protease and phosphatase inhibitor. The samples were sonicated 30% amplitude, 35 seconds on and 35 seconds off for 1 cycle and boiled at 95° C. for 5 minutes. 30-35 μL of samples were loaded on a 4-15% Criterion™ TGX Stain-Free™ Protein Gel (Bio-rad, 5678084). In some assessments, NCI-H1048 flash frozen tumor pieces were resuspended in RIPA buffer and homogenized on TissueLyser II with steel beads at 30 Hz for 3 minutes. Samples were then centrifuged at […] at 4° C. for 15 minutes. BCA protein determination was performed and samples normalized for 1.95 ug/uL. 19.5 uL were loaded and run on similar gels as cell pellets. […]"}, "KAT2B": {"target": "KAT2B (Homo sapiens, UniProt Q92831)", "sequence (Q92831 whole entry)": "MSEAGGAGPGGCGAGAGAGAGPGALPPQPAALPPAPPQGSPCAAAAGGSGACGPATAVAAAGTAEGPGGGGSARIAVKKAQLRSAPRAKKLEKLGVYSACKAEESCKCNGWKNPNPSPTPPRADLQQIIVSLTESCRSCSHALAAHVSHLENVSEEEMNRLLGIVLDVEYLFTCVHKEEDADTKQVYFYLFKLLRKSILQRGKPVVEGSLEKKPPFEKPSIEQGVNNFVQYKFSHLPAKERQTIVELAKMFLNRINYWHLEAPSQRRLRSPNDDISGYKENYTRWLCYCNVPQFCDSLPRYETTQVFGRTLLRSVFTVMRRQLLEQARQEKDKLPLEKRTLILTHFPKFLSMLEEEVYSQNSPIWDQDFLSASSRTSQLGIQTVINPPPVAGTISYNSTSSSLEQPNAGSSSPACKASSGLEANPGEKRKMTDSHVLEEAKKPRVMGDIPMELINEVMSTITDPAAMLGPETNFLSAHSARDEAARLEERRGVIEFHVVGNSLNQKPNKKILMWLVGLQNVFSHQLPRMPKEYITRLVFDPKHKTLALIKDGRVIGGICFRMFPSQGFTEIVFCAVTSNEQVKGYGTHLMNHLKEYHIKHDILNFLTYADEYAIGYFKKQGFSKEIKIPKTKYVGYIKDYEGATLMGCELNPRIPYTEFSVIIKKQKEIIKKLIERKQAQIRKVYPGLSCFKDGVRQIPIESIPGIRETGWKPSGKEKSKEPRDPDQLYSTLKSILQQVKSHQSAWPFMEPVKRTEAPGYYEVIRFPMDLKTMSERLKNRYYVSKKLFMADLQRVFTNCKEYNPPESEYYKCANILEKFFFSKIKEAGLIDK", "assay": "Western blot of KAT2B in NCI-H1048 tumors, 168 hours post last dose", "type": "in vivo", "set-up": "degrader, Western blot", "conditions": "FIG. 1 (F)", "description": "FIG. 1. Provided compounds can provide various activities including inhibiting tumor growth in vivo. (A): Provided compounds can inhibit tumor growth in vivo. Nude Balb/c mice were inoculated with NCI-H1048 cells in Matrigel. Tumors were allowed to grow up to about 200 mm^3 and mice were then randomized into two groups. Mice were dosed intraperitoneally (i.p.) once per week with vehicle or 30 mg/kg compound 22. Tumor size was measured every three to four days and mice were sacrificed once vehicle tumors reached 2000 mm^3. Error bar is SEM. Dosing started at day 17 post tumor inoculation. (B): Provided technologies can reduce KAT2A and KAT2B levels and histone acetylation levels. […] Vehicle is DMSO. […] Cell count data relative to DMSO control after 8 days of treatment with compound 22 are presented as examples to confirm inhibition. GI50=6 nM. (D): Provided technologies can inhibit tumor growth in vivo. Nude balb/c mice inoculated with H1048 tumors were dosed intraperitoneally once per week (qw i.p.) with vehicle (HbCD) or compound 22. Average tumor volumes+/−SEM from 6 mice are represented. […] See also (A). […] Certain body weights relative to starting weight are presented as examples to confirm tolerability and safety. (F): Provided technologies can reduce KAT2A and KAT2B levels and histone acetylation levels in tumor in vivo. […]"}, "KAT2A [2]": {"target": "T1, KAT2A (Homo sapiens, UniProt Q92830)", "T1 sequence (Q92830 whole entry)": "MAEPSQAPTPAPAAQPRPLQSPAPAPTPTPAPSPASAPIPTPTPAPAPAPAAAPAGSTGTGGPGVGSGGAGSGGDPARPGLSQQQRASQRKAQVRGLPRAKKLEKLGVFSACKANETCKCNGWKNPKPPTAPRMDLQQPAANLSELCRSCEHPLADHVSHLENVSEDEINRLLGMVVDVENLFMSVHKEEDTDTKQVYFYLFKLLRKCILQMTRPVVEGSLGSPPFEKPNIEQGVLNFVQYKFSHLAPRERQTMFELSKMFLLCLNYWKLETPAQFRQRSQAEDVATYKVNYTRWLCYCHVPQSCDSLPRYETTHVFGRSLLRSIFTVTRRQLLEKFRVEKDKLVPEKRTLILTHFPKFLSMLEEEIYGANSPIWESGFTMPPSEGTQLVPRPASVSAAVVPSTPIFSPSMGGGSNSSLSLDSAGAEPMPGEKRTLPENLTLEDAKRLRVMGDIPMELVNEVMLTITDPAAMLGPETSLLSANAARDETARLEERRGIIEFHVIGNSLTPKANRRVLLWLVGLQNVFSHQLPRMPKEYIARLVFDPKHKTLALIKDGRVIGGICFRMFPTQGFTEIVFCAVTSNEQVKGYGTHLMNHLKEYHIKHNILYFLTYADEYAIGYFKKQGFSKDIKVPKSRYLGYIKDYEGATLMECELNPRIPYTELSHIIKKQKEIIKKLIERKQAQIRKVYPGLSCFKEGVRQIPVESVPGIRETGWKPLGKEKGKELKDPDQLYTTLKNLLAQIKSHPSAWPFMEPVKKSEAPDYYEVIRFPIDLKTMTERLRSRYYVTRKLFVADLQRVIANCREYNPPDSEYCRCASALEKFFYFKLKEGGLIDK", "assay": "Western blot of KAT2A level in acute myeloid leukemia MOLM-13 cells, 48 h", "type": "cell-based", "set-up": "degrader, Western blot", "conditions": "FIG. 2 (A)", "description": "FIG. 2. Provided compounds can provide various activities. (A): Provided technologies can reduce KAT2A and KAT2B levels and histone acetylation levels. […] Cell count data after 8 days of treatment with compound 22 relative to DMSO control are presented as examples to confirm inhibition. […] (C): Provided technologies can modulate cell states and induce differentiation. […] EC50=0.3 nM."}, "KAT2A [3]": {"target": "T1, KAT2A", "assay": "KAT2A degradation, Western Blot (Jess), MOLM-13 cells", "type": "cell-based", "set-up": "degrader, Western blot", "how_it_was_run": "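MOLM-13 cells in RPMI 1640/20% FBS were treated with compound for 24 h at 37 °C. RIPA lysates (4 μg) were run on a capillary Western (Jess) with anti-KAT2A antibody and chemiluminescent detection. DC50 comes from percent protein reduction versus DMSO control.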"}, "LASCPC-01 cells": {"tested_on": "LASCPC-01 cells", "assay": "Inhibition of growth in vivo, neuroendocrine prostate cancer (LASCPC-01) cells", "conditions": "FIG. 3 (see also Example B3)"}}, "note": "Read-outs that look alike come from different tables or passages of the source."}
{"smiles": "CN1C[C@H](Nc2cnn(C)c(=O)c2Br)C[C@H](c2ccc(C(=O)N3CCC(CN4CCN(c5ccc6c(c5)CN(C5CCC(=O)NC5=O)C6=O)CC4)CC3)cc2)C1", "note": "(stereo partly drawn) [Compound 22, 3-(5-(4-((1-(4-((3R,5R)-5-((5-bromo-1-methyl-6-oxo-1,6-dihydropyridazin-4-yl)amino)-1-methylpiperidin-3-yl)benzoyl)piperidin-4-yl)methyl)piperazin-1-yl)-1-oxoisoindolin-2-yl)piperidine-2,6-dione]", "values": [{"measurement": "histone acetylation (e.g., AcH3K9) levels", "setting": "[1]", "result": "reduce histone acetylation (e.g., AcH3K9) levels"}, {"measurement": "reduction of KAT2B in tumor", "setting": "KAT2B", "result": "significant reduction"}, {"measurement": "reduction of KAT2A level", "setting": "KAT2A [2]", "result": "confirm such reduction"}, {"measurement": "EC90", "setting": "KAT2A [3]; 24 h, MOLM-13, KAT2A, read-out: DC90 (the source's name)", "result": 0.6, "unit": "nM"}, {"measurement": "DC50", "setting": "KAT2A [3]; MOLM-13, KAT2A, read-out: DC50", "result": 0.11, "unit": "nM"}, {"measurement": "KAT2A levels", "setting": "KAT2A [3]; MOLM-13 cells, FIG. 2", "result": "potently reduce KAT2A and KAT2B levels"}, {"measurement": "DC50", "setting": "KAT2A [3]; MOLM-13 cells, KAT2A, 24 h, Western Blot, vs DMSO, read-out: KAT2A MOLM-13 DC50", "result": "< 1", "unit": "nM"}, {"measurement": "cell growth in vivo", "setting": "LASCPC-01 cells", "result": "inhibit cell growth in vitro and in vivo"}]}
